According to the NIST ThermoML archive (doi:10.1021/acs.jced.9b00074):

Assay: xn = mol fraction of the nth substance listed
Conditions: 100 kPa, Liquid; for viscosity: Falling or rolling sphere viscometry; for mass density: Vibrating tube method

CC12CC3CC(C1)CC(C)(C3)C2 [1,3-dimethyladamantane] + C1C[C@@H]2[C@H]3CC[C@H](C3)[C@@H]2C1
Conditions	mass density [kg/m3]	viscosity [mPa·s]
293.15 K, x2 = 0.0998	905.2	3.715
293.15 K, x2 = 0.2023	908.96	3.67
293.15 K, x2 = 0.2984	912.36	3.623
293.15 K, x2 = 0.3996	915.9	3.555
293.15 K, x2 = 0.4998	919.37	3.474
293.15 K, x2 = 0.5973	922.65	3.388
293.15 K, x2 = 0.7005	926.17	3.293
293.15 K, x2 = 0.8026	929.43	3.2
293.15 K, x2 = 0.9	932.64	3.114
298.15 K, x2 = 0.0998	901.59	3.316
298.15 K, x2 = 0.2023	905.3	3.277
298.15 K, x2 = 0.2984	908.68	3.238
298.15 K, x2 = 0.3996	912.18	3.181
298.15 K, x2 = 0.4998	915.61	3.116
298.15 K, x2 = 0.5973	918.86	3.045
298.15 K, x2 = 0.7005	922.34	2.965
298.15 K, x2 = 0.8026	925.59	2.885
298.15 K, x2 = 0.9	928.76	2.814
303.15 K, x2 = 0.0998	897.97	2.977
303.15 K, x2 = 0.2023	901.64	2.947
303.15 K, x2 = 0.2984	904.99	2.915
303.15 K, x2 = 0.3996	908.45	2.867
303.15 K, x2 = 0.4998	911.85	2.81
303.15 K, x2 = 0.5973	915.06	2.75
303.15 K, x2 = 0.7005	918.51	2.68
303.15 K, x2 = 0.8026	921.77	2.618
303.15 K, x2 = 0.9	924.88	2.555
308.15 K, x2 = 0.0998	894.36	2.687
308.15 K, x2 = 0.2023	897.98	2.666
308.15 K, x2 = 0.2984	901.29	2.637
308.15 K, x2 = 0.3996	904.71	2.601
308.15 K, x2 = 0.4998	908.08	2.547
308.15 K, x2 = 0.5973	911.26	2.495
308.15 K, x2 = 0.7005	914.67	2.438
308.15 K, x2 = 0.8026	917.91	2.385
308.15 K, x2 = 0.9	921	2.332
313.15 K, x2 = 0.0998	890.74	2.44
313.15 K, x2 = 0.2023	894.32	2.422
313.15 K, x2 = 0.2984	897.59	2.394
313.15 K, x2 = 0.3996	900.98	2.363
313.15 K, x2 = 0.4998	904.31	2.319
313.15 K, x2 = 0.5973	907.45	2.275
313.15 K, x2 = 0.7005	910.84	2.227
313.15 K, x2 = 0.8026	914.04	2.179
313.15 K, x2 = 0.9	917.12	2.136
318.15 K, x2 = 0.0998	887.12	2.222
318.15 K, x2 = 0.2023	890.65	2.209
318.15 K, x2 = 0.2984	893.89	2.185
318.15 K, x2 = 0.3996	897.24	2.157
318.15 K, x2 = 0.4998	900.53	2.121
318.15 K, x2 = 0.5973	903.65	2.081
318.15 K, x2 = 0.7005	906.99	2.042
318.15 K, x2 = 0.8026	910.17	2.002
318.15 K, x2 = 0.9	913.23	1.964
323.15 K, x2 = 0.0998	883.5	2.032
323.15 K, x2 = 0.2023	886.99	2.02
323.15 K, x2 = 0.2984	890.18	2.001
323.15 K, x2 = 0.3996	893.49	1.978
323.15 K, x2 = 0.4998	896.75	1.946
323.15 K, x2 = 0.5973	899.83	1.915
323.15 K, x2 = 0.7005	903.15	1.879
323.15 K, x2 = 0.8026	906.3	1.844
323.15 K, x2 = 0.9	909.33	1.812
328.15 K, x2 = 0.0998	879.87	1.867
328.15 K, x2 = 0.2023	883.31	1.857
328.15 K, x2 = 0.2984	886.47	1.839
328.15 K, x2 = 0.3996	889.74	1.819
328.15 K, x2 = 0.4998	892.97	1.794
328.15 K, x2 = 0.5973	896.02	1.764
328.15 K, x2 = 0.7005	899.3	1.734
328.15 K, x2 = 0.8026	902.43	1.704
328.15 K, x2 = 0.9	905.43	1.677
333.15 K, x2 = 0.0998	876.23	1.719
333.15 K, x2 = 0.2023	879.65	1.714
333.15 K, x2 = 0.2984	882.76	1.696
333.15 K, x2 = 0.3996	885.99	1.679
333.15 K, x2 = 0.4998	889.18	1.657
333.15 K, x2 = 0.5973	892.2	1.631
333.15 K, x2 = 0.7005	895.45	1.605
333.15 K, x2 = 0.8026	898.54	1.58
333.15 K, x2 = 0.9	901.52	1.557

CC12CC3CC(C1)CC(C)(C3)C2 [1,3-dimethyladamantane] + OC1CCCC1
Conditions	mass density [kg/m3]	viscosity [mPa·s]
293.15 K, x2 = 0.0963	903.9	3.868
293.15 K, x2 = 0.1973	906.97	4.123
293.15 K, x2 = 0.3101	910.8	4.531
293.15 K, x2 = 0.4019	914.34	4.967
293.15 K, x2 = 0.4995	918.49	5.61
293.15 K, x2 = 0.5999	923.27	6.396
293.15 K, x2 = 0.6997	928.58	7.57
293.15 K, x2 = 0.7976	934.17	8.863
293.15 K, x2 = 0.9003	940.6	10.32
298.15 K, x2 = 0.0963	900.22	3.42
298.15 K, x2 = 0.1973	903.23	3.627
298.15 K, x2 = 0.3101	907	3.953
298.15 K, x2 = 0.4019	910.49	4.3
298.15 K, x2 = 0.4995	914.58	4.805
298.15 K, x2 = 0.5999	919.31	5.428
298.15 K, x2 = 0.6997	924.57	6.304
298.15 K, x2 = 0.7976	930.15	7.3
298.15 K, x2 = 0.9003	936.59	8.417
303.15 K, x2 = 0.0963	896.53	3.048
303.15 K, x2 = 0.1973	899.47	3.212
303.15 K, x2 = 0.3101	903.18	3.477
303.15 K, x2 = 0.4019	906.62	3.756
303.15 K, x2 = 0.4995	910.65	4.154
303.15 K, x2 = 0.5999	915.31	4.643
303.15 K, x2 = 0.6997	920.53	5.319
303.15 K, x2 = 0.7976	926.1	6.092
303.15 K, x2 = 0.9003	932.59	6.972
308.15 K, x2 = 0.0963	892.84	2.729
308.15 K, x2 = 0.1973	895.7	2.863
308.15 K, x2 = 0.3101	899.33	3.076
308.15 K, x2 = 0.4019	902.72	3.302
308.15 K, x2 = 0.4995	906.7	3.618
308.15 K, x2 = 0.5999	911.29	4.007
308.15 K, x2 = 0.6997	916.45	4.532
308.15 K, x2 = 0.7976	922.01	5.135
308.15 K, x2 = 0.9003	928.43	5.829
313.15 K, x2 = 0.0963	889.12	2.457
313.15 K, x2 = 0.1973	891.91	2.565
313.15 K, x2 = 0.3101	895.47	2.736
313.15 K, x2 = 0.4019	898.8	2.919
313.15 K, x2 = 0.4995	902.71	3.174
313.15 K, x2 = 0.5999	907.24	3.484
313.15 K, x2 = 0.6997	912.35	3.891
313.15 K, x2 = 0.7976	917.88	4.365
313.15 K, x2 = 0.9003	924.29	4.915
318.15 K, x2 = 0.0963	885.4	2.222
318.15 K, x2 = 0.1973	888.1	2.307
318.15 K, x2 = 0.3101	891.59	2.447
318.15 K, x2 = 0.4019	894.85	2.595
318.15 K, x2 = 0.4995	898.7	2.801
318.15 K, x2 = 0.5999	903.16	3.048
318.15 K, x2 = 0.6997	908.21	3.368
318.15 K, x2 = 0.7976	913.7	3.742
318.15 K, x2 = 0.9003	920.09	4.179
323.15 K, x2 = 0.0963	881.66	2.018
323.15 K, x2 = 0.1973	884.27	2.083
323.15 K, x2 = 0.3101	887.67	2.199
323.15 K, x2 = 0.4019	890.88	2.32
323.15 K, x2 = 0.4995	894.66	2.485
323.15 K, x2 = 0.5999	899.04	2.681
323.15 K, x2 = 0.6997	904.03	2.935
323.15 K, x2 = 0.7976	909.47	3.234
323.15 K, x2 = 0.9003	915.84	3.582
328.15 K, x2 = 0.0963	877.91	1.841
328.15 K, x2 = 0.1973	880.42	1.893
328.15 K, x2 = 0.3101	883.74	1.984
328.15 K, x2 = 0.4019	886.87	2.082
328.15 K, x2 = 0.4995	890.58	2.217
328.15 K, x2 = 0.5999	894.89	2.376
328.15 K, x2 = 0.6997	899.81	2.576
328.15 K, x2 = 0.7976	905.2	2.814
328.15 K, x2 = 0.9003	911.54	3.093
333.15 K, x2 = 0.0963	874.14	1.686
333.15 K, x2 = 0.1973	876.55	1.724
333.15 K, x2 = 0.3101	879.77	1.797
333.15 K, x2 = 0.4019	882.83	1.877
333.15 K, x2 = 0.4995	886.46	1.987
333.15 K, x2 = 0.5999	890.7	2.116
333.15 K, x2 = 0.6997	895.55	2.275
333.15 K, x2 = 0.7976	900.88	2.469
333.15 K, x2 = 0.9003	907.18	2.689
